# Key:
# [1] = Antioxidant activity (AOA) of plasma from AAPH-treated rats, against AAPH; format: in vivo, Sprague-Dawley rats; details: for AOAAAPH: ascorbic acid 500 mg/kg p.o., SOD 50 mg/kg s.c., mean ± SEM, n=8
# Method: (§1) To examine the effects of EF effect during oxidative stress, rats were divided into five groups (n=8) as follows: 1) non-treatment; 2) treatment with the oxidizing agent, AAPH, on experimental day seven; 3) co-treatment with EF and AAPH; 4) co-treatment with AAPH and the anti-oxidant agent, ascorbic acid; or 5) co-treatment with AAPH and superoxide dismutase. Rats of Group 3 were exposed to a sine wave of 50 Hz, 17,500 V/m intensity, 15 minutes per day for one week. In addition, Groups 1, 2, 4 and 5 were sham EF exposed, in which were maintained for an equal period of time inside the exposure cage with the system turned off. On the seventh day after EF was started, Group 3 was exposed to EF just after administration of AAPH (10 mg/kg, i.p.). In Group 4, ascorbic acid (500 mg/kg, p.o.) was administered 60 minutes before of the AAPH treatment. Superoxide dismutase (50 mg/kg, s.c., Nacalai Tesque, Tokyo, Japan) was administered to Group 5 just before the AAPH treatment. Under pentobarbital (45 mg/kg, i.p.) anesthesia, blood was collected from the abdominal cava vein 90 minutes later after AAPH administration, and the plasma was separated by centrifugation at 1,670×g for 10 minutes at 4° C. The plasma samples were stored at −80° C. until tested.
# (§2) Plasma AOA was measured by a method using a derivative of methylene blue. Briefly, 0.1 ml plasma or a solution of ascorbic acid (Wako Ltd., Osaka, Japan) and 0.65 ml distilled water was added into 1.5 ml of Good's buffer adjusted to pH 5.8 (Good et al., 1966), including 1% triton X-100 supplemented with 3,7-bis-demethylamino-10-methyl carbamoyl phenothiazine (MCDP, 40 μM, KYOWA MEDEX Co., Ltd., Tokyo, Japan) and hemoglobin (67.5 μg/ml). After incubation for one minute at 37° C., 0.25 ml of tert-butylhydroperoxide (84 μM, BHP, Aldrich) as an alkoxyl radical initiator was added and reacted for 10 minutes at 37° C. In addition, AOA measurements in a reaction using AAPH (50 mM) as a peroxy radical initiator were conducted in Good's buffer without hemoglobin for 20 minutes at 37° C. A radical initiator not trapped by an antioxidant in each plasma sample will oxidize MCDP. The absorbance of the resultant blue color was subsequently measured by absorbance at 675 nm using a spectrophotometer (150-20, Hitachi). The equation to calculate AOA was the following: AOA (%)=(1−Abs1/Abs2)×100, where Abs1 is the absorbance of the plasma sample, and Abs2 is a value of the blank.
# [2] = Antioxidant activity (AOA) of plasma from AAPH-treated rats, against BHP; format: in vivo, Sprague-Dawley rats; details: for Plasma antioxidant activity against BHP: ascorbic acid 500 mg/kg p.o., SOD 50 mg/kg s.c., mean ± SEM, n=8
# Method: as §1, §2
# mouse splenocytes = assay: [Ca^2+]c-high cells in lectin-stimulated mouse splenocytes, fluo-3 flow cytometry; format: cell-based, BALB/c mice; details: 5 μg/ml PHA, 1 mM CaCl2; EF-exposed and unexposed cells
# Method: In order to avoid contact of the cells and the lower electrode, polycarbonate membrane (Isopore, MILLIPORE, MA USA) was placed between the dish and the insert. Approximately 1 ml of the cell suspension was poured into culture well/space and covered with a lid.
# Female BALB/c mice, 4-7 wk old obtained from CLEA Inc. (Tokyo, Japan) maintained in a conventional animal house equipped with clean air-filtering device were splenectomized under anesthesia, and cell suspensions of splenocytes were prepared. To examine cell viability, the cells were cultivated in Dulbecco's modified Eagle's medium (SIGMA, MO, USA) supplemented with 10% fetal bovine serum (FSB). The cells were maintained in Hank's balanced salt solution (HBSS) (SIGMA, MO, USA) during examination for [Ca^2+]c which was carried out within 4 hr after cell preparation. Cells were stored at 4 degree C. prior to use.
# Splenocytes (10^6 cells/ml) were incubated for 20 min at 37 degrees C. in HBSS containing 2.5 μM fluo-3-acetoxylmethyl (Molecular Probes, USA) [Vandenberghe et al., 1990]. The cell suspension was then diluted 5 times with HBSS containing 1% FBS, incubated for 40 min at 37 degrees C., washed 3 times with assay buffer, and the cells were then suspended in the assay buffer at a concentration of 1×10^6/ml. Throughout the cell preparation, the cell suspensions were mixed gently.
# Considering the reported synergistic interaction between EMF and mitogen (Walleczek and Liburdy, 1990), concanavalin-A (Con-A) (Seikagaku Co., Tokyo, Japan) and phytohemaglutinin (PHA) (SIGMA, MO, USA) were used.
# Taking into account the results of the viability test for exposed murine splenocytes earlier assayed, we chose to use the optimum culture and exposure conditions (60 Hz, 6 μA/cm^2 EF) in carrying out the following five experiments: • (1) cells suspended in HEPES-buffered saline (BS)+1 mM CaCl2 were exposed to EF for a total of 40 min, and 12.5 μg/ml of Con-A was added after the first 8 min of exposure. The control groups consisted of EF-unexposed cells containing Con-A, and EF-exposed cells without Con-A. Percent [Ca^2+]c-high cells was checked at certain exposure points; • (2) cells in HEPES-BS+1 mM CaCl2 were exposed for a total of 12 min, and different concentrations (1 ng-12.5 μg/ml) of Con-A were added after the first 4 min of exposure. The control group was essentially the same as that of the experimental group but without EF-exposure; • (3) cells in HEPES-BS+1 mM CaCl2 were exposed for a total of 8 min, and 5 μg/ml of PHA was added after the first 4 min of exposure. The control groups consisted of EF-unexposed cells containing PHA, and EF-exposed cells without PHA; • (4) cells suspended in HEPES-BS without CaCl2 were exposed for a total of 12 min, and different concentrations (1 ng-5 μg/mil) of Con-A were added after the first 4 min of exposure. The control group was essentially the same as the experimental group but without EF exposure; and • (5) to evaluate the persistent effect of EF exposure, cells suspended in HEPES-BS+[…] were exposed for a total of 4 min, after which different concentrations (0.025-12.5 μg/ml) of Con-A were added, and the generation of [Ca^2+]c-high cells for the next 8 min without EF exposure was monitored with flow cytometry. The control was essentially the same as the experimental group but without any EF-exposure. Statistical Analysis
# AAPH-treated rats = assay: Plasma lipid peroxide (TBARS) levels in AAPH-treated rats; format: in vivo, Sprague-Dawley rats; details: for Plasma levels of lipid peroxide compared to the sham EF-exposed group: AAPH-treated rats, P<0.05 (ascorbic acid), P<0.01 (superoxide dismutase); for Malondialdehyde concentration: plasma lipid peroxide, AAPH 10 mg/kg i.p., ascorbic acid 500 mg/kg p.o., SOD 50 mg/kg s.c., mean ± SEM, n=8
# Method: as §1
# Thiobarbituric acid reactive substance (TBARS), as an indicator of the plasma concentration of lipid peroxide, was measured using a commercialized kit (Lipid peroxide-test Wako, Wako Ltd., Osaka, Japan).
# [3] = Antioxidant activity (AOA) of rat plasma, ascorbic acid added in the test tube, AAPH as radical initiator; format: biochemical, Sprague-Dawley rats
# Method: (§3) To examine the effects of EF on unstressed rats, rats were exposed to a sine wave of 50 Hz, 17,500 V/m intensity, 15 minutes per day for 1 one week. Each rat in three groups (n=5) was individually treated with an EF or a sham EF, or was not treated. Rats exposed to sham EF were maintained for an equal period of time inside the exposure cage with the system turned off. Under pentobarbital (45 mg/kg, i.p.) anesthesia, blood was collected from the abdominal cava vein after EF exposure on experimental day seven, and the plasma was separated by centrifugation at 1,670×g for 10 minutes at 4° C. The plasma samples were stored at −80° C. until tested.
# (§4) Plasma AOA was measured by a method using a derivative of methylene blue. Briefly, 0.1 ml plasma or a solution of ascorbic acid (Wako Ltd., Osaka, Japan) and 0.65 ml distilled water was added into 1.5 ml of Good's buffer adjusted to pH 5.8 (Good et al., 1966), including 1% triton X-100 supplemented with 3,7-bis-demethylamino-10-methyl carbamoyl phenothiazine (MCDP, 40 μM, KYOWA MEDEX Co., Ltd., Tokyo, Japan) and hemoglobin (67.5 μg/ml). […] The absorbance of the resultant blue color was subsequently measured by absorbance at 675 nm using a spectrophotometer (150-20, Hitachi). The equation to calculate AOA was the following: AOA (%)=(1−Abs1/Abs2)×100, where Abs1 is the absorbance of the plasma sample, and Abs2 is a value of the blank.
# [4] = Antioxidant activity (AOA) of rat plasma, ascorbic acid added in the test tube, BHP as radical initiator; format: biochemical, Sprague-Dawley rats
# Method: as §3, §4
# [5] = added to plasma of the non-treatment group, P<0.01
# [6] = ascorbic acid 440 ng/ml added to plasma of non-treatment group, mean ± SEM, n=5
molecule,measurement,setting,value
"CC(C)(N=NC(C)(C)C(=N)N)C(=N)N.Cl.Cl [AAPH, 2,2′-azobis(2-amidinopropane)dihydrochloride]",Change in plasma AOA against AAPH in rats treated with AAPH,[1]; AAPH 10 mg/kg i.p.,suppression
same,Change in plasma AOA against BHP in rats treated with AAPH,[2]; AAPH 10 mg/kg i.p.,did not show any changes
phytohemaglutinin [PHA],[Ca^2+]c-high cells,mouse splenocytes,significant increases
"O=C1O[C@H]([C@@H](O)CO)C(O)=C1O [Ascorbic acid, ascorbic acid]",Plasma levels of lipid peroxide compared to the sham EF-exposed group,AAPH-treated rats,lower
same,Malondialdehyde concentration,AAPH-treated rats,1.509 ± 0.05 nmol/mL
same,AOA of plasma against AAPH after addition of ascorbic acid,[3]; [5],significantly elevated
same,AOAAAPH,[3]; [6],62.0 ± 3.8 %
same,AOA of plasma against BHP after addition of ascorbic acid,[4]; [5],significantly elevated
same,AOABHP,[4]; [6],87.7 ± 0.3 %
same,Plasma AOA compared to the other four groups,"[1]; AAPH-treated rats, P<0.01",significantly higher
same,AOAAAPH,[1]; AAPH-treated rats,46.3 ± 3.2 %
same,AOA against BHP compared to the other four groups,"[2]; AAPH-treated rats, P<0.01",increase
same,Plasma antioxidant activity against BHP,[2]; AAPH-treated rats,87.5 ± 0.3 %
superoxide dismutase [SOD],Plasma levels of lipid peroxide compared to the sham EF-exposed group,AAPH-treated rats,lower
same,Malondialdehyde concentration,AAPH-treated rats,1.139 ± 0.10 nmol/mL
same,Plasma AOA compared to the sham EF-exposed group,[1]; AAPH-treated rats,not different
same,Plasma AOA compared to the non-treatment group,"[1]; AAPH-treated rats, P<0.05",significantly suppressed
same,AOAAAPH,[1]; AAPH-treated rats,22.1 ± 2.5%
same,Plasma antioxidant activity against BHP,[2]; AAPH-treated rats,78.0 ± 2.1%

# — patent US20050187581A1, “Methods of treating disorders with electric fields” (priority 2000, published 2005)
